Measurements as given in US20090143279A1 (priority 2007, published 2009).
Where two headings read alike, the source gives them in different places.

Legend:
nuOXPHOS transcripts = assay type: cell-based, mouse; conditions: for nucOX (composite Z-score): normalized score vs mock-treated (DMSO) wells
mtOXPHOS transcripts = assay type: cell-based, mouse; conditions: for mitoOX (composite Z-score): normalized score vs mock-treated (DMSO) wells
OXPHOS gene expression = assay type: cell-based, mouse; conditions: for GE-HTS (composite Z-score): normalized score vs mock-treated (DMSO) wells
cytochrome c = assay type: cell-based, mouse; conditions: for cyt c (composite Z-score): normalized score vs mock-treated (DMSO) wells
[1] = system: mitochondrial membrane potential; assay type: cell-based, mouse; conditions: for ΔΨm (composite Z-score): normalized score vs mock-treated (DMSO) wells
reactive oxygen species = assay type: cell-based, mouse; conditions: for ROS (composite Z-score): normalized score vs mock-treated (DMSO) wells
C2C12 myotubes = conditions: for Viability (composite Z-score): normalized score vs mock-treated (DMSO) wells
[2] = system: cellular dehydrogenase activity; conditions: for MTT (composite Z-score): normalized score vs mock-treated (DMSO) wells
[3] = composite Z-score vs DMSO, Conc 20 μM
[4] = composite Z-score vs mock-treated (DMSO) wells, Conc 20 μM
[5] = normalized composite Z-score vs mock-treated (DMSO) wells, Conc 20 μM
[6] = composite Z-score vs DMSO wells, Conc 20 μM
[7] = 7.92 μM, composite Z-score vs DMSO
[8] = 20 μM, composite Z-score vs DMSO

Molecule `O=[N+]([O-])NC1=NCCN1Cc1ccc(Cl)nc1` [imidacloprid] has a nucOX (nuOXPHOS transcripts; [3]) of −0.214, a mitoOX (mtOXPHOS transcripts; [3]) of −0.368 and a GE-HTS (OXPHOS gene expression; [3]) of −0.294. It also gave a cyt c (cytochrome c; [3]) of 0.607, a ΔΨm [1, 3] of −0.019 and an ROS (reactive oxygen species; [3]) of 0.075. For the same molecule, the Viability (C2C12 myotubes; [3]) was −0.121 and the MTT [2, 3] was −0.893.

In the case of `COc1ccc(/C=C/c2cc(O)cc(O)c2)cc1` [resveratrol 4′-methyl ether], the nucOX (nuOXPHOS transcripts; [4]) is reported as −0.063, the mitoOX (mtOXPHOS transcripts; [4]) is reported as 0.065 and the GE-HTS (OXPHOS gene expression; [4]) is reported as −0.005. It also gave a cyt c (cytochrome c; [4]) of 0.142, a ΔΨm [1, 4] of −0.389 and an ROS (reactive oxygen species; [4]) of 0.225. It also gave a Viability (C2C12 myotubes; [4]) of −0.225 and an MTT [2, 4] of −1.056.

`CC1(C)C(=O)C=C[C@]2(C)[C@H]3CC[C@@]4(C)[C@H](c5ccoc5)OC(=O)[C@H]5O[C@]54[C@]3(C)C=C[C@@H]12` [7-desacetoxy-6,7-dehydrogedunin] showed a nucOX (nuOXPHOS transcripts; [5]) of −0.695, a mitoOX (mtOXPHOS transcripts; [5]) of −2.631 and a GE-HTS (OXPHOS gene expression; [5]) of −1.430. The cyt c (cytochrome c; [5]) was 0.198, the ΔΨm [1, 5] was −1.799 and the ROS (reactive oxygen species; [5]) was −3.492. It also gave a Viability (C2C12 myotubes; [5]) of −0.973 and an MTT [2, 5] of −1.891.

`CC(=O)O[C@@H]1C[C@H]2C(C)(C)CCC(=O)[C@]2(C)[C@H]2CC[C@@]3(C)[C@H](c4ccoc4)OC(=O)[C@H]4O[C@]43[C@@]21C` [2,3-dihydroisogedunin] was tested, and the “nucOX (composite Z-score)” value (nuOXPHOS transcripts; Conc 20 μM) was −0.444, the “mitoOX (composite Z-score)” value (mtOXPHOS transcripts; Conc 20 μM) was −0.449 and the “GE-HTS (composite Z-score)” value (OXPHOS gene expression; Conc 20 μM) was −0.471. The “cyt c (composite Z-score)” value (cytochrome c; Conc 20 μM) was 0.184, the “ΔΨm (composite Z-score)” value ([1]; Conc 20 μM) was 0.221 and the “ROS (composite Z-score)” value (reactive oxygen species; Conc 20 μM) was 0.780. For the same molecule, the “Viability (composite Z-score)” value (C2C12 myotubes; Conc 20 μM) was 0.804 and the “MTT (composite Z-score)” value ([2]; Conc 20 μM) was −1.287.

Work on `CN1CCCC(CC2c3ccccc3Sc3ccccc32)C1` (centres unmarked) [metixene] yielded a nucOX (nuOXPHOS transcripts) of −1.058, a mitoOX (mtOXPHOS transcripts) of −1.236 and a GE-HTS (OXPHOS gene expression) of −1.190. It also gave a cyt c (cytochrome c) of 0.097, a ΔΨm [1] of −0.713 and an ROS (reactive oxygen species) of −0.834. It also gave a Viability (C2C12 myotubes) of 1.221 and an MTT [2] of −0.786.

Work on `CCc1nc(N)nc(N)c1-c1ccc(Cl)cc1` [pyrimethamine] yielded a nucOX (nuOXPHOS transcripts; [6]) of −0.526, a mitoOX (mtOXPHOS transcripts; [6]) of −0.825 and a GE-HTS (OXPHOS gene expression; [6]) of −0.657. The cyt c (cytochrome c) was 1.048, the cyt c (cytochrome c; [6]) was −0.306 and the ΔΨm [1, 6] was −0.696. It also gave an ROS (reactive oxygen species; [6]) of 0.329, a Viability (C2C12 myotubes; [6]) of 0.994 and an MTT [2, 6] of −1.810.

With `CC(=O)OCC(=O)[C@@]1(O)CC[C@H]2[C@@H]3C[C@H](C)C4=CC(=O)C=C[C@]4(C)[C@H]3[C@@H](O)C[C@@]21C` [6alpha-methylprednisolone acetate] the “nucOX (composite Z-score)” value (nuOXPHOS transcripts; Conc 20 μM) was −0.518, the “mitoOX (composite Z-score)” value (mtOXPHOS transcripts; Conc 20 μM) was 0.750 and the “GE-HTS (composite Z-score)” value (OXPHOS gene expression; Conc 20 μM) was −0.130. The “cyt c (composite Z-score)” value (cytochrome c; Conc 20 μM) was −0.364, the “ΔΨm (composite Z-score)” value ([1]; Conc 20 μM) was −0.462 and the “ROS (composite Z-score)” value (reactive oxygen species; Conc 20 μM) was 0.321. For the same molecule, the “Viability (composite Z-score)” value (C2C12 myotubes; Conc 20 μM) was −0.480 and the “MTT (composite Z-score)” value ([2]; Conc 20 μM) was −1.192.

With `CC(=O)O[C@@H]1C[C@H]2C(C)(C)[C@H](O)C[C@H](O)[C@]2(C)[C@H]2CC[C@@]3(C)[C@H](c4ccoc4)OC(=O)[C@H]4O[C@]43[C@@]21C` [1,3-dideacetylkhivorin] the nucOX (nuOXPHOS transcripts; [3]) was −0.349, the mitoOX (mtOXPHOS transcripts; [3]) was −1.275 and the GE-HTS (OXPHOS gene expression; [3]) was −0.693. The cyt c (cytochrome c; [3]) was 0.887, the ΔΨm [1, 3] was 0.051 and the ROS (reactive oxygen species; [3]) was 0.963. It also gave a Viability (C2C12 myotubes; [3]) of 0.507 and an MTT [2, 3] of −0.622.

`[H]/N=C(\N/C(=N/[H])NCCCCCCNC(=N)NC(=N)Nc1ccc(Cl)cc1)Nc1ccc(Cl)cc1` [chlorhexidine] gave a nucOX (nuOXPHOS transcripts; [7]) of 0.990, a nucOX (nuOXPHOS transcripts; [8]) of −0.592 and a mitoOX (mtOXPHOS transcripts; [7]) of 0.140. It also gave a mitoOX (mtOXPHOS transcripts; [8]) of −0.141, a GE-HTS (OXPHOS gene expression; [7]) of 0.775 and a GE-HTS (OXPHOS gene expression; [8]) of −0.455. It also gave a cyt c (cytochrome c; [7]) of 0.090, a cyt c (cytochrome c; [8]) of −1.683 and a ΔΨm [1, 7] of 0.348. The ΔΨm [1, 8] was 0.412, the ROS (reactive oxygen species; [7]) was −2.490 and the ROS (reactive oxygen species; [8]) was 1.660. The Viability (C2C12 myotubes; [7]) was −1.859, the Viability (C2C12 myotubes; [8]) was −0.976 and the MTT [2, 7] was −4.138. For the same molecule, the MTT [2, 8] was −2.340.

With `COC(=O)C[C@H]1C2(C)CC34OC5(C)O[C@@]6([C@H](OC(C)=O)C(OC(C)=O)[C@]7(C)C(/C(=C(/O)C(C)C)C(=O)O[C@H]7c7ccoc7)[C@@]6(O5)[C@H](OC(C)=O)[C@@]3(O)C2OC(=O)C(C)C)[C@]14C` (some centres unmarked) [bussein] the nucOX (nuOXPHOS transcripts; [3]) was −0.683, the nucOX (nuOXPHOS transcripts; [4]) was 1.431 and the mitoOX (mtOXPHOS transcripts; [3]) was −0.868. The mitoOX (mtOXPHOS transcripts; [4]) was 1.660, the GE-HTS (OXPHOS gene expression; [3]) was −0.809 and the GE-HTS (OXPHOS gene expression; [4]) was 1.630. The cyt c (cytochrome c; [3]) was 0.622, the cyt c (cytochrome c; [4]) was −1.496 and the ΔΨm [1, 3] was −0.807. For the same molecule, the ΔΨm [1, 4] was 0.367, the ROS (reactive oxygen species; [3]) was 0.656 and the ROS (reactive oxygen species; [4]) was −0.449. The Viability (C2C12 myotubes; [3]) was −0.052, the Viability (C2C12 myotubes; [4]) was 0.575 and the MTT [2, 3] was −0.599. It also gave an MTT [2, 4] of −1.406.

`C[C@]12C=CC(=O)C=C1CC[C@@H]1[C@@H]2CC[C@]2(C)C(=O)CC[C@@H]12` [androsta-1,4-dien-3,17-dione] showed a nucOX (nuOXPHOS transcripts; [3]) of −0.143, a mitoOX (mtOXPHOS transcripts; [3]) of −0.189 and a GE-HTS (OXPHOS gene expression; [3]) of −0.180. The cyt c (cytochrome c; [3]) was 0.261, the ΔΨm [1, 3] was 0.152 and the ROS (reactive oxygen species; [3]) was 0.068. It also gave a Viability (C2C12 myotubes; [3]) of 0.162 and an MTT [2, 3] of −0.500.

Work on `COc1cc(C)c(C(=O)O)c(O)c1` [everninic acid] yielded a nucOX (nuOXPHOS transcripts; [5]) of 1.517, a mitoOX (mtOXPHOS transcripts; [5]) of 1.116 and a GE-HTS (OXPHOS gene expression; [5]) of 1.491. For the same molecule, the cyt c (cytochrome c; [5]) was 0.115, the ΔΨm [1, 5] was −0.942 and the ROS (reactive oxygen species; [5]) was 0.423. For the same molecule, the Viability (C2C12 myotubes; [5]) was −0.592 and the MTT [2, 5] was −1.123.
